Reference: US11203598B2, “Compounds for repressing cancer cell growth” (Institute For Cancer Research, priority 2018, dated 2021)
One block for each compound: values may come before it.

Legend:
SW480 cells [1] = assay: CellTiter-Glo luminescent cell viability assay; type: cell-based, human
Experimental: Cells were seeded in 96-well plates at a density of 5×10^3 cells per well. 20 μL of CellTiter-Glo® Reagent was added directly to the wells, following the manufacturer's protocol, and bioluminescence signal was determined using an IVIS imaging system.
Cell lines at a concentration of 4×10^3 cells/well were seeded out on an opaque 96-well plate and treated with CB002 and Analog 11 in ranging doses starting from 200 μmol/L with DMSO controls. At 72 hours after treatment, cells were mixed with 30 μL Cell Titer-Glo reagent and after ten minutes of room temperature incubation were imaged using IVIS imaging system (Xenogen).
To begin establishing the potential of CB002 as a candidate therapeutic agent, its therapeutic index was determined by treating cancer (DLD-1, SW480, and RXF393) and normal (WI38 and MRC5) cell lines with concentrations of CB002 ranging from 0-500 μM for a period of 72 hours and assessing cell viability by the CellTiter-Glo® luminescence assay (see, FIG. 2). CB002 has a significant therapeutic index among the cells tested.

SW480 cells [2] = assay: apoptosis assay, sub-G1 analysis (propidium iodide, flow cytometry); type: cell-based, human; details: 25 μM, 48 hours
Experimental: (§1) Apoptotic cells were quantified by sub-G1 analysis. Cells were seeded at a density of 2.5×10^5 to 5×10^5 in a 6-well plate and treated for 48-72 hours. After treatment, adherent cells were trypsinized and collected along with floating cells, washed with PBS and fixed in 70% ethanol. Cells were then incubated in a Phosphate-citric acid buffer (0.2 M Na2HPO4+0.1 M Citric Acid, pH 7.8) at room temperature for 5 minutes, spun down and resuspended for staining with 50 μg/mL propidium iodide (PI) in the presence of 250 μg/mL pancreatic ribonuclease (RNase A). Sub-G1 analyses were performed using an Epics Elite Epics flow cytometer (Coulter-Beckman).
(§2) Cells were seeded out at 1×10^6 cells/well on six well plates and treated with CB002 and Analog 11 at ranging doses with DMSO controls. Cells were harvested after 72 hours of treatment, all cells including floating cells were fixed with ethanol and stained with Propidium Iodide and then analyzed using Epics Elite flow cytometer to measure the DNA content of the stained cells.

WI38 normal cells = assay: as above; type: cell-based, human; details: 25 μM, 48 hours
Experimental: as §1, §2

[3] = tested on: p53 pathway proteins in SW480 cells; assay: Western blot of p53, p53 targets, apoptosis and autophagy markers; type: cell-based, human; details: for Noxa protein expression: SW80 cells, 24 hours
Experimental: (§3) After treatment, cells were harvested by trypsinization, washed with PBS, and lysed with RIPA buffer (Sigma-Aldrich) for 30 minutes to 1 hour at 4° C. Protein lysates were spun down and supernatant was collected. Protein quantification was performed using a Pierce™ BCA Protein Assay Kit (Thermo Fisher Scientific). 1×NuPAGE® LDS sample buffer (Thermo Fisher Scientific) and 2-Mercaptoethanol as the reducing agent (Sigma-Aldrich) were added to protein lysates, followed by boiling for 15 minutes at 95° C. Equal total protein amounts samples were loaded into NuPAGE™ Novex™ 4-12% Bis-Tris Protein Gels (1.5 mm, Thermo Fisher Scientific) and gel eletrophoresis was performed with NuPAGE™ MES SDS Running Buffer. Proteins were transferred onto an Immobilon-P membrane (PVDF, EMD Millipore) using a Bio-Rad system with a 10% Tris-Glycine and 10% methanol transfer buffer diluted in distilled and deionized water. After transfer, membranes were blocked with 10% milk in TBST solution and then incubated overnight with primary antibody, washed with TBST and incubated with secondary antibody for 1 hour. Incubations were performed in 5% milk in TBST solution. Signal was detected by using a chemiluminescent detection kit, followed by autoradiography. The following antibodies were used: p53 (DO-1, 1:1000, Santa Cruz), p73 (1:1000, Bethyl Laboratories), p21 and NOXA (1:250, EMD Millipore), DR5, FADD, cleaved caspase 3, cleaved caspase 8, cleaved PARP, and LC3B (1:1000, Cell Signaling), and β-actin (1:10000, Sigma).
(§4) Proteins were isolated using NP40 Lysis Buffer (20 mmol/L Tris-HCl (pH 7.4), 150 mmol/L NaCl, 5 mmol/L EDTA, 50 mmol/L NaF, 1 mmol/L glycerophosphate, 5 mmol/L Na4P2O7, 0.5% NP40, and complete protease inhibitor cocktail (Roche)) and electrophoresed through 4-12% SDS-PAGE followed by semi-dry transfer to PVDF membranes. The PVDF membranes were incubated with different antibodies including p21 (OP64-100UG, EMD Millipore (world wide web at emdmillipore.com/US/en/product/Antip21WAF1-(Ab-1)-Mouse-mAb-(EA10), EMD_BIO-OP64)), PUMA (12450S, Cell Signaling Technology, world wide web at cellsignal.com/products/primary-antibodies/puma-d30c10-rabbit-mab/12450), DR5 (3696S, Cell Signaling Technology, world wide web at cellsignal.com/products/primary-antibodies/dr5-antibody/3696?N=4294956287&Ntt=3696s&fromPage=plp& requestid=541668), p53(sc-126, Santa Cruz, world wide web at scbt.com/scbt/fr/product/p53-antibody-do-1), and RAN (610341, BD Transduction Laboratories, world wide web at bdbiosciences.com/us/reagents/research/antibodies-buffers/cell-biologyreagents/cell-biology-antibodies/purified-mouse-anti-ran-20ran/p/610341) in blocking buffer at 4° C. overnight. Bound antibody will be detected using IRDye secondary antibodies (LI-COR Biosciences,) in Odyssey blocking buffer for 1 hour then imaged using the ODYSSEY infrared imaging system.

[4] = tested on: Noxa in 8226 bortezomib resistant multiple myeloma cell line; assay: Western blot of Noxa; type: cell-based; details: 25 μM Analog 4, 100 μM Analog 11
Experimental: Referring to FIG. 20 (panel C), 1×10^6 cells/well were seeded in a 12-well plate. 8226 parental and resistant multiple myeloma cell lines were treated with 100 μM CB002, 25 μM Analog 4, or 100 μM Analog 11.

8226 cells = assay: combination treatment with bortezomib, combination index (CompuSyn); type: cell-based; details: 48 hours, 0-100 nM Bortezomib with 0-200 μM analog
Experimental: Referring to FIG. 21 (panels A and B), 3×10^4 cells/well of 8226 cells were seeded in a 96-well plate. The cells were treated for 48 hours with a combination of 0-100 nM Bortezomib with 0-200 μM Analog 4 (see, panel A) and 0-100 nM Bortezomib with 0-200 μM Analog 11 (see, FIG. 21, panel B). CompuSyn software was used to analyze the combination index of both drugs.

[5] = tested on: MM1S Bortezomib resistant cells; assay: Cell Titer-Glo cell viability with bortezomib; type: cell-based; details: 25 μM Analog 4
Experimental: Referring to FIG. 21 (panel C), 3×10^4 cells/well of MM1S parental and Bortezomib MM1S resistant cells were seeded in a 96-well plate. Cell viability was determined by the Cell Titer-Glo® Assay.

[6] = tested on: p53 pathway proteins in DLD-1 cells; assay: Western blot of p53 targets and LC3B; type: cell-based, human; details: DLD-1, 24 hours
Experimental: as §3, §4

cell cycle G2 checkpoint = assay: propidium iodide staining cell cycle analysis; type: cell-based; details: 24 hour treatment, alone and with etoposide
Experimental: Referring to FIG. 22 (panels A-F), propidium iodide staining cell cycle analysis for 24 hour treatment with DMSO (panel A), CB002 (panel B), CB002 and etoposide (panel C), etoposide (panel D), caffeine (panel E), and caffeine and etoposixe (panel F). […] The deregulation of the G2 checkpoint as a mechanism by caffeine prevents […] tumor cells that are treated with DNA damaging drugs, such as etoposide, from arresting to have time to repair, and thus sensitizes cancer cells to cell death.

IC50 ranking among CB002 analogs (SW480 cells [1]; Cell Titer-Glo, serial dilution): most potent compound
SMILES: Cn1c(=O)c2[nH]c(Nc3cccc(C(F)(F)F)c3)nc2n(C)c1=O [Analog 4]
apoptosis by sub-G1 content (SW480 cells [2]): underwent apoptosis | apoptosis by sub-G1 content (WI38 normal cells): not normal human fibroblast WI38 cells | expression of DR5, Noxa and cleaved Parp ([3]; 12 or 25 μM, 16 and 24 hours): increased expression of DR5, Noxa, and cleaved Parp | Noxa expression ([3]; 24 hour, 100 μM CB002, 25 NM Analog 4, 100 μM Analog 11): Induction of Noxa expression | Noxa expression [4]: able to induce Noxa expression | synergy with Bortezomib (combination index) (8226 cells): synergyze the most with Bortezomib | sensitization to Bortezomib (cell viability) [5]: able to sensitize MM1S resistant cells to Bortezomib treatment

SMILES: CC(=O)CCCCn1c(=O)c2c(ncn2C)n(C)c1=O [pentoxifylline, reference compound]
Noxa protein expression [3]: dis not induce Noxa expression | Noxa protein expression [6]: dis not induce Noxa expression

SMILES: Cn1c(=O)c2[nH]cnc2n(C)c1=O [theophylline, reference compound]
Noxa protein expression [3]: dis not induce Noxa expression | Noxa protein expression [6]: dis not induce Noxa expression

SMILES: Cn1c(=O)c2c(ncn2C)n(C)c1=O [caffeine, reference compound]
Noxa protein expression [3]: dis not induce Noxa expression | Noxa protein expression [6]: dis not induce Noxa expression | effect on cell cycle G2 checkpoint (cell cycle G2 checkpoint): can deregulate the cell cycle G2 checkpoint

SMILES: O=c1[nH]cc(F)c(=O)[nH]1 [Analog 5-FU, 5-fluorouracil, reference compound]
toxicity (cell viability reduction), 5-FU versus CPT-11 (SW480 cells [1]; 72 hours, ascending doses): greater toxicity
